This is an account of results in patent US12391671B2, “Allosteric EGFR inhibitors and methods of use thereof” (Dana-Farber Cancer Institute, Inc., priority 2019, dated 2025).

Counter-ions that a name gives are not always drawn.

One may read the IC50 as the concentration that inhibits the measured activity by half. The low end stands for higher potency, the high end for lower potency.

One assay addresses EGFR L858R/T790M (Homo sapiens (Human), UniProt P00533, L858R/T790M). The experiment in a line: HTRF-based EGFR biochemical assay (L858R/T790M). The conditions noted are these: 100 μM ATP, enzyme 0.02 nM. As to the method: (§1) Example 25: HTRF-Based EGFR Biochemical Assays
(§2) EGFR biochemical activity measurements were carried out using the homogeneous time-resolved fluorescence (HTRF) assay (Cisbio), inhibitors and DMSO normalizations were first dispensed to empty black low-volume 384-well plates (Corning) with 0300 digital liquid dispenser (HP). All reactions were carried out at room temperature and solutions were added to plates with a Multidrop Combi Reagent Dispenser (ThermoFisher). The reaction mixture (10 μL final volume) contained 1 μM tyrosine kinase peptide-biotin substrate and mutant EGFR in a reaction buffer (50 mM HEPES pH 7.0, 5 mM MgCl2, 1 mM MnCl2, 0.01% BSA, 2 mM TCEP, 0.1 mM NaVO4). Enzyme concentrations were adjusted to accommodate varying kinase activities (L858R 0.1 nM, L858R/T790M 0.02 nM). Enzyme reaction solution (2× concentrations, 5 μL) was added to 384-well plates containing compounds and incubated for 30 mins. Enzyme reactions were initiated with the addition of 5 μL of ATP to a final concentration of 100 μM and reacted for 20 mins. Reactions were quenched with the addition of 10 μL of phospho-tyrosine antibody-Europium(III) cryptate (1-to-180 volume ratio) and Streptavidin-XL665 (46.7 nM) in EDTA-containing detection buffer, then incubated at room temperature for 1 hour, and read with a PHERAstar plate reader (excitation=337 nm, emission=620 nm and 665 nm).
Background: Time-resolved FRET reads energy transfer from a long-lived donor to a nearby acceptor.

The target of another assay is EGFR L858R (Homo sapiens (Human), UniProt P00533, L858R). The experiment in a line: HTRF-based EGFR biochemical assay (L858R). The conditions noted are these: 100 μM ATP, enzyme 0.1 nM. How it is done:
as §1, §2

Chain of EGFR L858R/T790M (P00533 25-1210 T790M/L858R): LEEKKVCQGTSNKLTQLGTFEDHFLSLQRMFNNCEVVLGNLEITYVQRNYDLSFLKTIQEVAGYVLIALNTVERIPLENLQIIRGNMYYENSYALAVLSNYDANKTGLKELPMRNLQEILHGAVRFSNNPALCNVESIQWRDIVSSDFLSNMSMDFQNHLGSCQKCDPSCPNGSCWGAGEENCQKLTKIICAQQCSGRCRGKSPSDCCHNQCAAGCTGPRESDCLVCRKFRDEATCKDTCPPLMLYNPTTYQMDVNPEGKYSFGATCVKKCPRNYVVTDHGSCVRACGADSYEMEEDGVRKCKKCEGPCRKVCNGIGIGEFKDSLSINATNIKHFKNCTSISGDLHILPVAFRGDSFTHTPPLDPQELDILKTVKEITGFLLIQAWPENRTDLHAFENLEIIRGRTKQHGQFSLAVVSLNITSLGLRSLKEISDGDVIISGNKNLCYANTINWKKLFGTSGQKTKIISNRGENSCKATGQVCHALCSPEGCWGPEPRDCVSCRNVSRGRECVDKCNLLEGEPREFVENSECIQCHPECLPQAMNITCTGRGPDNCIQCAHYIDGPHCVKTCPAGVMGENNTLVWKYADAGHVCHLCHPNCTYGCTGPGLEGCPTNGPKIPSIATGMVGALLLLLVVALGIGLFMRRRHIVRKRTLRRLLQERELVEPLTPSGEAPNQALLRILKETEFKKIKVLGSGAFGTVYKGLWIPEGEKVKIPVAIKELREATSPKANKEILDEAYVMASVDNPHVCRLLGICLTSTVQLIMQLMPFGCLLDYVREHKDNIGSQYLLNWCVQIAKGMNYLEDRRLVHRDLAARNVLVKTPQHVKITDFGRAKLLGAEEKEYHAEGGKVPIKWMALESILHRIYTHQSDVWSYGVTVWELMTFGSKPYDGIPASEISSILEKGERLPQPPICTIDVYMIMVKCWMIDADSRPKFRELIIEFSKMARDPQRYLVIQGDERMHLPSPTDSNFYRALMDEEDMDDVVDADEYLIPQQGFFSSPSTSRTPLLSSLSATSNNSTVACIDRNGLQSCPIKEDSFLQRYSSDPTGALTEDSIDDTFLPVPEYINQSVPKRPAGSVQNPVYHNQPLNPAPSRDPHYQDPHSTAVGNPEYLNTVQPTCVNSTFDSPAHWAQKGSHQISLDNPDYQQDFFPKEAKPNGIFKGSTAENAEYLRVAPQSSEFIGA
Chain of EGFR L858R (P00533 25-1210 L858R): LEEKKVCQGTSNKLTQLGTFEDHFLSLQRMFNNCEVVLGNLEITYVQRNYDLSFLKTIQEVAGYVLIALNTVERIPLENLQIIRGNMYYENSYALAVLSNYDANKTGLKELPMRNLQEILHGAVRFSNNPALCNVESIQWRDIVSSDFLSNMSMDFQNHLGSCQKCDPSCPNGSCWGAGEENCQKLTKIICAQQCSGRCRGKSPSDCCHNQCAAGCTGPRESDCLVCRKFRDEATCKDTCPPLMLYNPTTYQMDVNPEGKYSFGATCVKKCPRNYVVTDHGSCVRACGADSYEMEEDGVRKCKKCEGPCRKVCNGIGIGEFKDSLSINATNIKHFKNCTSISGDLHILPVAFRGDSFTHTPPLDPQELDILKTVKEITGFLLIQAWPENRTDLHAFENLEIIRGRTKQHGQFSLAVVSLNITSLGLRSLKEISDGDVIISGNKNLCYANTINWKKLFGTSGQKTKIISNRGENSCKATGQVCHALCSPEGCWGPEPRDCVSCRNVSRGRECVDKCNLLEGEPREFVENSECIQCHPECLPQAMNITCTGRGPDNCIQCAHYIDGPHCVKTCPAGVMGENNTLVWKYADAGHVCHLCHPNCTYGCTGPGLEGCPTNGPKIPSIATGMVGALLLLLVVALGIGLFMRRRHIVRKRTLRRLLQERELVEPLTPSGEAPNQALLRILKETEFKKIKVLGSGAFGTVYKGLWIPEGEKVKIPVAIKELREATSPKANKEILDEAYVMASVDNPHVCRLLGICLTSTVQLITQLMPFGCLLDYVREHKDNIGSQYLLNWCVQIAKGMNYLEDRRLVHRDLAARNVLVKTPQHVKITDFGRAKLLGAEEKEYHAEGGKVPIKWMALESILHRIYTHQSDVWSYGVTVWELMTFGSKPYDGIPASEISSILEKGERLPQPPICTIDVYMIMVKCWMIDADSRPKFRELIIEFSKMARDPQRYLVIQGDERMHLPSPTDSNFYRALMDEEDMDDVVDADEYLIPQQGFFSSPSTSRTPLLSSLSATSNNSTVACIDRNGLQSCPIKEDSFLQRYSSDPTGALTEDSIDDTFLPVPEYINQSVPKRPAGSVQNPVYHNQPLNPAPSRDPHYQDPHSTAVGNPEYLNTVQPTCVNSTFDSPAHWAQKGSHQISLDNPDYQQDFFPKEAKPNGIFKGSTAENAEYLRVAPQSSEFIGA

`COc1cc2cn(C(c3nc4ccccc4[nH]3)c3cc(F)ccc3O)nc2cc1-c1ccc(C2CCN(C)CC2)cc1` (stereo not drawn) [Compound 099, 2-[1H-Benzimidazol-2-yl-[5-methoxy-6-[4-(1-methyl-4-piperidyl)phenyl]indazol-2-yl]methyl]-4-fluoro-phenol]: the IC50 at EGFR L858R/T790M amounted to 8 nM; against EGFR L858R, 10 nM.

For `CN1CCC(c2ccc(-c3ccc4cn(C(c5nc6c(F)cccc6[nH]5)c5cc(F)ccc5O)nc4c3F)cc2)CC1` (stereo not drawn) [Compound 101, 4-Fluoro-2-((4-fluoro-1H-benzo[d]-imidazol-2-yl)(7-fluoro-6-(4-(1-methylpiperidin-4-yl)phenyl)-2H-indazol-2-yl)methyl)phenol; trifluoroacetate], the IC50 against EGFR L858R/T790M stood at 0.8 nM; against EGFR L858R, 4 nM.

With `CN1CCC(c2ccc(-c3ccc4c(=O)n(C(c5nc6c(F)cccc6[nH]5)c5cc(F)ccc5O)ccc4c3)cc2)CC1` (stereo not drawn) [Compound 102, 2-((4-Fluoro-1H-benzo[d]imidazol-2-yl)(5-fluoro-2-hydroxyphenyl)methyl)-6-(4-(1-methylpiperidin-4-yl)phenyl)isoquinolin-1(2H)-one], the figures for the IC50 on EGFR L858R/T790M and against EGFR L858R were 4 nM and 6 nM, respectively.

On to `CN1CCC2(c3ccc(-c4ccc5c(=O)n(C(c6nc7ccccc7[nH]6)c6cc(F)ccc6O)ccc5c4)cc3)CC2C1` (stereo not drawn) [Compound 108, 2-[1H-Benzimidazol-2-yl-(5-fluoro-2-hydroxy-phenyl)methyl]-6-[4-(3-methyl-3-azabicyclo[4.1.0]heptan-6-yl)phenyl]isoquinolin-1-one; dihydrochloride], for which the IC50 stood at 2 nM at EGFR L858R/T790M and 5 nM at EGFR L858R.

On to `CN1CCC(c2ccc(-c3ccc4c(=O)n(C(c5nc6ccccc6[nH]5)c5cc(F)ccc5O)ccc4c3)cc2F)CC1` (stereo not drawn) [Compound 109, 2-[1H-Benzimidazol-2-yl-(5-fluoro-2-hydroxy-phenyl)methyl]-6-[3-fluoro-4-(1-methyl-4-piperidyl)phenyl]isoquinolin-1-one; dihydrochloride], for which the concentration for half-maximal inhibition (IC50) against EGFR L858R/T790M turned out to be 2 nM; on EGFR L858R it was 4 nM.

Take `CN1CCC2(c3ccc(-c4cc(F)c5c(=O)n(C(c6nc7ccccc7[nH]6)c6cc(F)ccc6O)ccc5c4)cc3)CC2C1` (stereo not drawn) [Compound 110, 2-[1H-Benzimidazol-2-yl-(5-fluoro-2-hydroxy-phenyl)methyl]-8-fluoro-6-4-(3-methyl-3-azabicyclo[4.1.0]-heptan-6-yl)phenyl]isoquinolin-1-one; dihydrochloride]: the IC50 against EGFR L858R/T790M worked out at 0.6 nM; at EGFR L858R it was 3 nM.

`CN1CCC(c2ccc(-c3cc(F)c4c(=O)n(C(c5nc6ccccc6[nH]5)c5cc(F)ccc5O)ccc4c3)cc2F)CC1` (stereo not drawn) [Compound 111, 2-[1H-Benzimidazol-2-yl-(5-fluoro-2-hydroxy-phenyl)methyl]-8-fluoro-6-[3-fluoro-4-(1-methyl-4-piperidyl)-phenyl]isoquinolin-1-one; dihydrochloride]: the IC50 on EGFR L858R/T790M is 0.6 nM; against EGFR L858R, 3 nM.

As for `[2H]C(c1nc2ccccc2[nH]1)(c1cc(F)ccc1O)n1ccc2cc(-c3ccc(C4CCN(C)CC4)cc3)ccc2c1=O` (stereo not drawn) [Compound 112, 2-[1H-Benzimidazol-2-yl-deuterio-(5-fluoro-2-hydroxy-phenyl)methyl]-6-[4-(1-methyl-4-piperidyl)phenyl]isoquinolin-1-one], the IC50 against EGFR L858R/T790M is 2 nM; against EGFR L858R, 3 nM.

As to `[2H]C(c1nc2ccccc2[nH]1)(c1cc(F)ccc1O)n1ccc2cc(-c3ccc(C4CCN(C)CC4)cc3)cc(F)c2c1=O` (stereo not drawn) [Compound 113, 2-[1H-Benzimidazol-2-yl-deuterio-(5-fluoro-2-hydroxy-phenyl)methyl]-8-fluoro-6-[4-(1-methyl-4-piperidyl)phenyl]isoquinolin-1-one], the IC50 worked out at 4 nM at EGFR L858R/T790M and 14 nM at EGFR L858R.
